Reference: patent US12091378B2, “Therapeutics for central nervous system disorders” (1GLOBE BIOMEDICAL CO., LTD., priority 2017, dated 2024)
Structures can show the parent of a compound that is named as a salt.

Assays:
[1] = tested on: adult cerebellar granule neurons (CGN); assay: Adult CGN survival (Cell Counting Kit-8); format: cell-based, mice; settings: 50 μM and 10 μM, 48 hours
Experimental: CGN cells from 8 week-old female mice (C57BL/6) were maintained in neurobasal medium with B27 supplements. 2×10^5 cells were plated in each well of a PLL-coated 48 well plate with 400 μl of culture medium. Various embodiments of novel compounds of the invention at 50 μM (FIG. 8A) and 10 μM (FIG. 8B), CNTF (10 ng/mL) or DMF (50 μM) were added respectively into the cell culture samples for 48 hours. Cell counting solution (Cell Counting Kit-8, Dojindo, 40 μL) was added to the culture, and cells were incubated at 37° C. with 5% CO2 for 20 hours. The optical densities (OD) of absorbance at 450 nm were measured with SpectraMax M3 plate reader.

[2] = tested on: CPZ-induced demyelination; assay: Therapeutic treatment of CPZ-induced demyelination in vivo (LFB staining); design: species or system mice; settings: for Demyelination (Score of LFB staining): score 0 complete myelination, 4 complete demyelination, average ± SEM; for recovery from CPZ-induced demyelination and axon damage: therapeutic treatment, Examples 12 and 13
Experimental: As shown in FIGS. 12A-12C, the compound of the present invention was also tested in vivo to determine its therapeutic effect on promoting remyelination on CPZ-induced demyelination in comparison to DMF. Schematic of the study is depicted in FIG. 12A. Eight-week old mice were fed a diet containing 0.3% (w/w) of CPZ to induce demyelination for 6 weeks. The control mice received regular mouse chow. The CPZ fed mice received oral gavage of formulation (Vehicle), DMF or Compound 1 at the beginning of week 6 for two weeks. At the end of treatment, the brains were collected and, post fixed, processed for analysis. The myelin was stained with LFB stain. Representative images of LFB staining of mouse brain sections are shown in FIG. 12B where midline corpus callosum (CC) is delineated by squares in the top panels (scale bar: 200 μm) and then shown at higher magnification in the lower panels (scale bar: 25 μm). Quantitative analysis of myelination of LFB staining is shown in FIG. 12C where myelination is scored as follows: a score of 0 means complete myelination and a score of 4 means complete demyelination. *p<0.05, *** p<0.001 compared with CPZ with vehicle treatment (n=4-6 mice).
(§1) According to the above Examples 12 and 13, the therapeutic effects of Compound 1 and DMF on CPZ-induced demyelination and axon damage were summarized below where quantitative analysis of myelination and axon integrity in adult female mice was performed and results shown in Table 1. The scoring of myelination and axon damage was performed as described in Example 12 and Example 13. The treatments are as indicated. The average scores and SEM are shown. Statistic differences were analyzed by one way ANOVA followed by Tukey test. *p<0.05, **p<0.01, […] compared with normal control; #p<0.05, ##p<0.01, ###p<0.001 compared with CPZ plus vehicle, §§p<0.01 compared with CPZ plus DMF at 10 mg/kg (n=4-6 mice).

CPZ-induced axon damage [3] = assay: Therapeutic treatment of CPZ-induced axon damage in vivo (silver staining); design: species or system mice; settings: score 0 no axon damage, 4 complete axon damage, average ± SEM
From the text: Schematic of this study is depicted in FIG. 13A. Eight-week old female mice were fed a diet containing 0.3% (w/w) of CPZ to induce demyelination for 6 weeks. The control mice received regular mouse chow. The CPZ fed mice received oral gavage of formulation (Vehicle), DMF or Compound 1 at the beginning of week 6 for two weeks. At the end of treatment, the brains were collected, and post fixed, processed for morphological analysis. The axons were stained with Bielschowsky's Silver staining. Representative images of silver staining of mouse brain sections are shown in FIG. 13B where midline corpus callosum (CC) is delineated by white squares in the top panels (scale bar: 200 μm) and then shown at higher magnification in the lower panels (scale bar: 25 μm). Quantitative analysis of axon damage of silver staining is shown in FIG. 13C where axon damage is scored as follows: a score of 0 means no axon damage, and a score of 4 means complete axon damage. **p<0.01, ***p<0.001 compared with CPZ plus vehicle; ##p<0.01 compared with CPZ plus DMF (n=4-6 mice).
as §1

Microglia = assay: LPS/IFN-induced microglia activation (Iba1 positive cells); format: cell-based, mice; settings: 50 μM, LPS 10 ng/mL and IFN 20 ng/ml, 48 hours
Experimental: Microglia from P7 mice were treated with lipopolysaccharide (LPS, 10 ng/mL) and Interferon-gama (IFN, 20 ng/ml) to induce activation of microglia for 48 hours. To determine the effects on LPS/IFN-induced microglia activation, DMF or various embodiments of compounds of the invention (all at 50 μM) were individually added into separate culture samples 30 minutes after LPS/IFN were added. Cells were later fixed and processed for immunofluorescence (IF) staining with anti-Iba1 (ionized calcium-binding adaptor molecule 1) antibody. The number of Iba1 positive cells and the total number of cells (Hochest H33342 positive cells which includes dead and live cells) were quantified from 12 consecutive areas under fluorescent microscope with 20×objective.

cerebellar slices [4] = assay: Remyelination on LPC-induced demyelination in cerebellar slices (MBP immunofluorescence); format: cell-based, mice; settings: 50 μM, 3 days in culture, LPC 2 mg/mL
Experimental: (§2) Specifically, cerebellar slices from 8 week-old female mice were treated with lysophosphatidylcholine (LPC, 2 mg/mL) to induce demyelination, and then treated with representative compound of the invention, Compound 1 (50 μM), for 3 days in culture. The slices were processed for immunofluorescence staining with anti-MBP antibody. The images were captured with Nikon eclipse TE2000 microscope using Spot Advanced software (version 4.3) at 4×magnification.

cerebellar slices [5] = assay: Remyelination on CPZ-induced demyelination in cerebellar slices (MBP immunofluorescence); format: cell-based, mice; settings: 50 μM, 3 days in culture
Experimental: as §2, with “cuprizone (CPZ)” for “lysophosphatidylcholine (LPC, 2 mg/mL)”, “invention” for “invention,”, “μM)” for “μM),”, “4×magnification. The fluorescence intensity of MBP of the cerebellar slice in each image was measured with NIH Image J.” for “4×magnification.”

[6] = tested on: CPZ-induced demyelination; assay: Prophylactic treatment of CPZ-induced demyelination in vivo (LFB staining); design: species or system mice; settings: 10 mg/kg oral gavage for 7 weeks, formulations HPC or GHI F505-1
Experimental: As shown in FIGS. 9A-9C, the compound of the present invention (Compound 1) was able to prevent CPZ-induced demyelination in adult female mice. FIG. 9A illustrates the schematic of the study. Eight-week old female mice were fed a diet containing 0.3% (w/w) of CPZ to induce demyelination for 6 weeks. The control mice received regular mouse chow. In the meantime, CPZ fed mice received oral gavage of formulation (Vehicle) or Compound 1 (10 mg/kg) for 7 weeks. At the end of the treatment, mice were perfused, and the brains were collected and processed for analysis. The extent of myelination was examined by staining with Luxol Fast Blue (LFB). Representative images of LFB staining of mouse brain sections are shown in FIG. 9B where midline corpus callosum (CC) is delineated by dotted squares in the top panels (scale bar: 200 μm) and then shown at higher magnification in the lower panels (scale bar: 25 μm). Myelinated axons in the CC from mice fed with normal chow are stained as compacted blue (shown here as gray-colored, same for all following blue-colored pictures). […] Quantitative analysis of myelination of LFB staining is shown in FIG. 9C where myelination is scored as follows: a score of 0 means complete myelination and a score of 4 means complete demyelination. […]

CPZ-induced axon damage [7] = assay: Prophylactic treatment of CPZ-induced axonal damage in vivo (Bielschowsky's silver staining); design: species or system mice; settings: 10 mg/kg oral gavage for 7 weeks, formulations HPC or GHI F505-1
From the text: The mice were fed and treated with the same method as Example 9. The Bielschowsky's silver staining was used to visualize axon fiber in mouse brains. Representative images of silver staining of mouse brains sections are shown in FIG. 10A where midline corpus callosum (CC) is delineated by dotted squares in the top panels (scale bar: 200 μm) and then shown at higher magnification in the lower panels (scale bar: 25 μm). While a linear staining pattern of continuous axon fibers is present in normal control CC, axon damage with interruption of axon fibers and demyelination is observed in the CC of CPZ-treated animals. […] Quantitative analysis of silver-stained axons is shown in FIG. 10B where axon damage is scored as follows: a score of 0 means no axon damage and a score of 4 means complete axon damage. Columns “10-A” and “10-B” indicate samples treated with Compound 1 at 10 mg/kg in formulations HPC or GHI F505-1, respectively. *p<0.05, ***p<0.001 compared with control; ## p<0.01 compared with CPZ with vehicle treatment (n=4 mice).

IGF-2 = IGF-2 in plasma of CPZ MS animal model (ELISA); format: in vivo; settings: 10 mg/kg oral gavage for 7 weeks, CPZ fed mice
From the text: IGF2 is a neurotrophic factor which is essential for the development and regeneration of the nervous system, and plays a pivotal role in adult neurogenesis and cognitive function (see Fernadez A M and Torres-Aleman I, 2007, Nat Rev Neurosci 13(4):225-39; Iwamoto T and Ouchi Y, 2014, Rev Neurosci 25(4):559-74). […] FIG. 11A illustrates the schematic of the study. Experimental setup was similar to that in Example 9: eight-week old female mice were fed a diet containing 0.3% (w/w) of CPZ to induce demyelination for 6 weeks. The control mice received regular mouse chow. In the meantime, CPZ fed mice received oral gavage of formulation (Vehicle) or Compound 1 (10 mg/kg) for 7 weeks. At the end of treatment, the plasma was collected and processed for analysis. The levels of IGF-2 in mouse plasma were measured using ELISA. The scatter plot of IGF-2 concentrations found in individual mice is shown in FIG. 11B. **p<0.01 of CPZ plus Compound 1-treated group compared with control (Ctl), or CPZ-treated group (n=4).

MBP, NF, APP, GFAP, Iba1 = assay: Molecular markers for myelination, axon integrity and glia activation in brain sections (immunofluorescence); format: in vivo, mouse; settings: CPZ + 10 mg/kg, trend versus CPZ
Experimental: Effects of Compound 1 on molecule markers relevant to myelination, axon integrity and gliosis were also examined in the brain sections from normal control, CPZ-treated, and CPZ plus Compound 1 treated animals. Molecules in mouse brain sections were stained with respective antibodies by immunofluorescence. The fluorescent intensity of MBP- and NF-labeled fibers were measured with Image J. The number of specific antibody-stained cells in 400×microscopic fields were counted. Although statistic analysis is still in progress, the trends of the effects are clear from the images available so far.

EAE mouse model = assay: Clinical score of mouse EAE model (pilot study); format: in vivo, C57/BL6 mice; settings: 10 mg/ml daily from EAE onset for 20 days
Experimental: EAE mouse model was induced by inoculation of MOG35-55 protein in adult C57/BL6 mice. Mean clinical score of EAE mice treated with vehicle or Compound 1 (10 mg/ml) for a duration of 42 days after immunization was shown in FIG. 14. The treatments were applied daily from the date of EAE onset for 20 days.

[8] = 10 mg/kg oral gavage for two weeks
[9] = 0.1 mg/kg oral gavage for two weeks

**Q.** What does the source list for `COC(=O)/C=C/C(=O)OC` [DMF, dimethyl fumarate, reference compound]?
**A.** effect on adult CGN survival [1]: little effect; Demyelination (Score of LFB staining) [2, 8]: 2.25 ± 0.25; recovery from CPZ-induced demyelination and axon damage [2]: not significant; Axon damage (Score of Silver staining) (CPZ-induced axon damage [3]; [8]): 2.25 ± 0.25

**Q.** Which “inhibiting microglia activation (Iba1 positive cells)” value (Microglia) does the source give for `COC(=O)/C=C/C(=O)OCCCCCCOC(=O)NC(=N)NC(=N)N(C)C` [Compound 2] here?
**A.** The value was “significant capability for inhibiting microglia activation”.

**Q.** `COC(=O)/C=C/C(=O)OCc1ccc(COC(=O)NC(=N)NC(=N)N(C)C)cc1` [Compound 1] was tested. Which “remyelination on LPC-induced demyelination (MBP fluorescence intensity)” value (cerebellar slices [4]) did it give?
**A.** The value was “strong remyelination effects”.

**Q.** And the “remyelination on CPZ-induced demyelination (MBP fluorescence intensity)” value (cerebellar slices [5])?
**A.** Its value is “promotes remyelination”.

**Q.** And the “inhibiting microglia activation (Iba1 positive cells)” value (Microglia)?
**A.** Its value is “significantly better efficacy in comparison to DMF”.

**Q.** What about the “prevention of CPZ-induced demyelination (LFB staining)” value [6] of the same compound?
**A.** The value was “prevents CPZ-induced demyelination”.

**Q.** And the “prevention of CPZ-induced axon damage (silver staining)” value (CPZ-induced axon damage [7])?
**A.** Its value is “preserved the continuous staining pattern of axon fibers”.

**Q.** What about the “level of IGF-2 in mouse plasma” value (IGF-2) of the same compound?
**A.** Its value is “significantly increase”.

**Q.** What about the “Demyelination (Score of LFB staining)” value [2, 9] of the same compound?
**A.** Its value is 2.00 ± 0.26.

**Q.** And the “Demyelination (Score of LFB staining)” value [2, 8]?
**A.** The value was 1.33 ± 0.21.

**Q.** And the “recovery from CPZ-induced demyelination and axon damage” value [2]?
**A.** Its value is “robust recovery”.

**Q.** What about the “Axon damage (Score of Silver staining)” value (CPZ-induced axon damage [3]; [9]) of the same compound?
**A.** Its value is 1.33 ± 0.21.

**Q.** And the “Axon damage (Score of Silver staining)” value (CPZ-induced axon damage [3]; [8])?
**A.** Its value is 0.83 ± 0.31.

**Q.** And the “APP (Axonal damage)” value (MBP, NF, APP, GFAP, Iba1)?
**A.** The value was “↓”.

**Q.** What about the “GFAP (Astrogliosis)” value (MBP, NF, APP, GFAP, Iba1) of the same compound?
**A.** Its value is “↓”.

**Q.** What about the “Iba 1 (Activated microglia)” value (MBP, NF, APP, GFAP, Iba1) of the same compound?
**A.** The value was “↓”.

**Q.** What about the “MBP (Myelin)” value (MBP, NF, APP, GFAP, Iba1) of the same compound?
**A.** Its value is “↑”.

**Q.** What about the “NF (Neural fibers)” value (MBP, NF, APP, GFAP, Iba1) of the same compound?
**A.** Its value is “↑”.

**Q.** And the “persistence of effect on clinical score after termination of treatment” value (EAE mouse model)?
**A.** The value was “persisted for over two weeks after termination of treatment”.

**Q.** What about the “average clinical scores versus vehicle” value (EAE mouse model; 42 days after immunization, n=5) of the same compound?
**A.** Its value is “significantly lower average clinical scores”.
